Values belong to the compound of their own block, whether it stands above or below them.
Legend:
Format in all cases: biochemical
[1] = target: T1, OYERo2a (WT) (Rhodococcus opacus, UniProt A0A1B1KA86, C25S, form not given); experiment: steady-state kinetics, NADPH consumption at […] nm; conditions: 50 mM phosphate pH 7.1, 25°C
T1 construct: gene O4328_33150; FMN 1:1; dimer by gel filtration; single Cys25

[2] = target: T2, OYERo2a (WT) (Rhodococcus opacus, UniProt A0A1B1KA86); experiment: steady-state kinetics, NADPH consumption at […] nm; conditions: 50 mM phosphate pH 7.1, 25°C
T2 construct: gene O4328_33150; FMN 1:1; dimer by gel filtration; single Cys25

[3] = target: T3, OYERo2a (WT) (Rhodococcus opacus, UniProt A0A1B1KA86, C25G, form not given); experiment: steady-state kinetics, BNAH consumption at […] nm; conditions: electron donor; 1 mM N-methylmaleimide, 50 mM phosphate pH 7.1, 25°C
T3 construct: gene O4328_33150; FMN 1:1; dimer by gel filtration; single Cys25

[4] = target: T1, OYERo2a (WT); experiment: steady-state kinetics, BNAH consumption at […] nm; conditions: electron donor; 1 mM N-methylmaleimide, 50 mM phosphate pH 7.1, 25°C
[5] = target: T2, OYERo2a (WT); experiment: steady-state kinetics, BNAH consumption at […] nm; conditions: electron donor; 1 mM N-methylmaleimide, 50 mM phosphate pH 7.1, 25°C
[6] = target: T4, OYERo2a (WT) (Rhodococcus opacus, UniProt A0A1B1KA86, C25A, form not given); experiment: steady-state kinetics, BNAH consumption at […] nm; conditions: electron donor; 1 mM N-methylmaleimide, 50 mM phosphate pH 7.1, 25°C
T4 construct: gene O4328_33150; FMN 1:1; dimer by gel filtration; single Cys25

[7] = target: T3, OYERo2a (WT); experiment: steady-state kinetics, NADPH consumption at […] nm; conditions: 50 mM phosphate pH 7.1, 25°C
[8] = target: T4, OYERo2a (WT); experiment: steady-state kinetics, NADPH consumption at […] nm; conditions: 50 mM phosphate pH 7.1, 25°C
[9] = target: T2, OYERo2a (WT); experiment: residual activity after pre-incubation; conditions: covalent (Cys25); 10 mM, 120 min, 50 mM phosphate pH 7.1, 4°C, dark, oxidized enzyme

T3 sequence (A0A1B1KA86 entry or part of it C25G, form open): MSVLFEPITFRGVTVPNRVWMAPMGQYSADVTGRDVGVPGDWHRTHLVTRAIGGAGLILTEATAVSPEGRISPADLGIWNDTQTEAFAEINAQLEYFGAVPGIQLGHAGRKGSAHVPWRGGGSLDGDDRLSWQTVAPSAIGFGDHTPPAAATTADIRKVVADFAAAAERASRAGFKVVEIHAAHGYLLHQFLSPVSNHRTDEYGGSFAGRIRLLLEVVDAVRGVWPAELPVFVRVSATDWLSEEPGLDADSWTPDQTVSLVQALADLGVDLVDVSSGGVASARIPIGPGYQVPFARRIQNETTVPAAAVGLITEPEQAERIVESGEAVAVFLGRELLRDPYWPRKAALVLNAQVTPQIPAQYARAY
T1 sequence (A0A1B1KA86 entry or part of it C25S, form open): as the sequence (A0A1B1KA86 entry or part of it C25G, form open) above, with G25S counted along it
T2 sequence (A0A1B1KA86 entry or part of it): as the sequence (A0A1B1KA86 entry or part of it C25G, form open) above, with G25C counted along it
T4 sequence (A0A1B1KA86 entry or part of it C25A, form open): as the sequence (A0A1B1KA86 entry or part of it C25G, form open) above, with G25A counted along it

- Km ([1]; 180 μM NADPH, read-out: C25S): 8900 µM
- Km ([2]; 180 μM NADPH, read-out: WT): 3500 µM
Structure (SMILES): O=C1C=CCCC1 [2-cyclohexen-1-one]

- Km [3]: 517 ± 45 µM
- Km [4]: 239 ± 24.3 µM
- Km [5]: 169 ± 12.4 µM
- Km [6]: 230 ± 17.8 µM
Structure (SMILES): NC(=O)C1=CN(Cc2ccccc2)C=CC1 [BNAH]

- Km ([1]; 180 μM NADPH, read-out: C25S): 30.4 µM
- Km ([7]; 180 μM NADPH, read-out: C25G): 94.4 µM
- Km ([8]; 180 μM NADPH, read-out: C25A): 9.1 µM
- Km ([2]; 180 μM NADPH, read-out: WT): 9.6 µM
Structure (SMILES): CN1C(=O)C=CC1=O [N-methylmaleimide]
- relative activity [9]: while the OYERo2a became almost completely inactivated

- Km ([1]; electron donor, 1 mM N-methylmaleimide, read-out: C25S / NADPH): 76.9 ± 4.1 µM
- Km ([7]; electron donor, 1 mM N-methylmaleimide, read-out: C25G / NADPH): 55.2 ± 2.3 µM
- Km ([8]; electron donor, 1 mM N-methylmaleimide, read-out: C25A / NADPH): 121 ± 8.7 µM
- Km ([2]; electron donor, 1 mM N-methylmaleimide, read-out: WT / NADPH): 34.8 ± 2 µM
Structure (SMILES): NC(=O)C1=CN([C@@H]2O[C@H](COP(=O)(O)OP(=O)(O)OC[C@H]3O[C@@H](n4cnc5c(N)ncnc54)[C@H](OP(=O)(O)O)[C@@H]3O)[C@@H](O)[C@H]2O)C=CC1 [NADPH]
